From patent US7893260B2, “Substituted quinazolin-4-one compounds for antagonizing TRPV3 function” (priority 2005, dated 2011)

Legend:
[1] = system: carrageenan model of acute inflammatory pain; experiment: Carrageenan model of acute inflammatory pain (thermal hyperalgesia, Hargreaves); assay type: in vivo, rats
Protocol: As outlined above, the carrageenan model is a model of acute inflammatory pain. As such, it may be used to evaluate effectiveness in relieving pain caused by inflammation, for example, pain due to arthritis.
Briefly, naive rats were pretested for sensitivity to a heat stimulus using the Hargreaves apparatus. The next day, 100 μL of λ-carrageenan was injected into the plantar surface of the right hindpaw approximately 4.5 hours before testing. 30-60 minutes before testing the rats were injected intraperitoneally with vehicle or drug (to evaluate the efficacy of a TRPV3 inhibitor administered IP) or were administered vehicle or drug orally (PO; to evaluate the efficacy of a TRPV3 inhibitor administered orally).
In this study, the drug administered was either a TRPV3 inhibitor (compound 82), the TRPV1 inhibitor, A-425619 (produced by Abbott; maximal efficacious dose, 40 mg/kg IP; El Kouhen et al, 2005, J Pharmacol Exp Ther 314: 400-4091; Honore et al., 2005, J Pharmacol Exp Ther 314: 410-421), or the non-steroidal anti-inflammatory diclofenac. Following administration of both carrageenan and drug or vehicle control, the thermal escape latency was measured. Data are expressed as a percentage comparing the recorded Paw Withdrawal Latencies (PWLs) in seconds to that pre-carrageenan administration.

rat TRPV3 = molecular target: T1, rat TRPV3 (Rattus norvegicus, UniProt Q4QYD9); experiment: Whole-cell patch clamp, cells expressing rat TRPV3; assay type: cell-based; details: rat TRPV3 IC50 converted to mass concentration
T1 construct: expressed in transfected cells
T1 sequence (Q4QYD9 1-791): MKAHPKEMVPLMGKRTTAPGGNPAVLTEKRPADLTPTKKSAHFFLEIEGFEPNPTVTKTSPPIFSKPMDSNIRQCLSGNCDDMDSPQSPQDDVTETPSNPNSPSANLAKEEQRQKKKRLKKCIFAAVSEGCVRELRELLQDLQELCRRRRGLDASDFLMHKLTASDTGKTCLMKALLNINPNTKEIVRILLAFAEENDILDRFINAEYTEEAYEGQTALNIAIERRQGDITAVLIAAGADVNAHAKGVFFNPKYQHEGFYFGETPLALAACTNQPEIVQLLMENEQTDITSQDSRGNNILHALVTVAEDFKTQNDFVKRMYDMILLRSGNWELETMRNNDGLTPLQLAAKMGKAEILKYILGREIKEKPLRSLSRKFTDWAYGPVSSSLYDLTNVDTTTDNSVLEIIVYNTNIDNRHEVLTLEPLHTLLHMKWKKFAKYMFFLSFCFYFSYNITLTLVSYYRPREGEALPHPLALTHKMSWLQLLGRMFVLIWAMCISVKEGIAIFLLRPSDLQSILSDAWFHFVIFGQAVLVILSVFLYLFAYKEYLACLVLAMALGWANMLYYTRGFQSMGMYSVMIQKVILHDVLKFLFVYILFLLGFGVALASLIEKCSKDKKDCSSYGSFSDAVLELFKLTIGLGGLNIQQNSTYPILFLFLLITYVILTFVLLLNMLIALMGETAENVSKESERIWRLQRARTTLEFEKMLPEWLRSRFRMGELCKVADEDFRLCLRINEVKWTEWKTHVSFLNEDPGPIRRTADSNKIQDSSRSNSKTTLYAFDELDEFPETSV
Excerpt: (§1) Whole-cell patch clamp experiments permit the detection of currents through the TRPV3 channel in the cell line described above. A glass electrode is brought into contact with a single cell and the membrane is then ruptured, permitting control of the voltage of the cell membrane and measurement of currents flowing across the membrane using the amplifier attached to the electrode. A perfusion system permits control of the extracellular solution, including the addition of blockers and activators of the current. The current can be activated by heating this solution to 28° C. or warmer or by addition of 20 μM 2-APB to the solution.
(§2) TRPV3 cells were induced 20-48 hours, removed from growth plates, and replated at low density (to attain good single-cell physical separation) on glass coverslips for measurement. In some cases, cells were grown in low density overnight on glass coverslips. Patch clamp recordings were made in the whole-cell mode with a holding potential of −40 mV. […] Currents elicited were quantified at −80 mV and +80 mV. The internal solution consisted of 140 mM cesium aspartate, 10 mM EGTA, 2.27 mM MgCl2, 1.91 mM CaCl2 and 10 mM HEPES, pH to 7.2 with KOH; with 50 nM calculated free Ca^2+. […]
(§3) The plasma levels of a TRPV3 inhibitor (compound 82) were determined via HPLC/MS/MS following administration to male Sprague-Dawley rats.

human TRPV3 = molecular target: T2, human TRPV3 (Homo sapiens, UniProt Q8NET8); experiment: Whole-cell patch clamp, cells expressing human TRPV3; assay type: cell-based; details: human TRPV3 IC50 converted to mass concentration
T2 construct: expressed in transfected cells; host or cells: HEK293/TREx (Invitrogen), tetracycline-inducible
T2 sequence (Q8NET8 1-790): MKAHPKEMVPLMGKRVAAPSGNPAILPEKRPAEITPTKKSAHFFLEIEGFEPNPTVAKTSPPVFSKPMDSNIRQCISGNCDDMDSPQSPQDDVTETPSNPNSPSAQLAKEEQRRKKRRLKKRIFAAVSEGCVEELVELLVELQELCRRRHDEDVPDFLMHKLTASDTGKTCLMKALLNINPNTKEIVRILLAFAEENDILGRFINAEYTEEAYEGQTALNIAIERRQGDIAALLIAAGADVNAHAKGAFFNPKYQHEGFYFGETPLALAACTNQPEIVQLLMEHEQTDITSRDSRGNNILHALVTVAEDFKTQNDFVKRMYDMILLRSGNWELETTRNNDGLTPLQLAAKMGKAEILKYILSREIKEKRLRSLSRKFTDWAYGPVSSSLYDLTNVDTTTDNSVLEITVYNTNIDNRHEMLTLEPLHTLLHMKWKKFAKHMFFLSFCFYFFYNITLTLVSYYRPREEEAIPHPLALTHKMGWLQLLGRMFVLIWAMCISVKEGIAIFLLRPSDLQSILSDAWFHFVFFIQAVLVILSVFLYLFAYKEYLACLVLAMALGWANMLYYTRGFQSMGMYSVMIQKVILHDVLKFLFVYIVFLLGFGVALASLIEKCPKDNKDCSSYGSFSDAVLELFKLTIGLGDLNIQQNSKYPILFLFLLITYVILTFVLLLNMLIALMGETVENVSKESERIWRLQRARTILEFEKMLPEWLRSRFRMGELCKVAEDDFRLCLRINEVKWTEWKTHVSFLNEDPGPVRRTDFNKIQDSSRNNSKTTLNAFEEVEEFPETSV
Excerpt: as §1, §2, §3

[2] = Plasma levels / pharmacokinetics after IV or oral administration; assay type: in vivo, male Sprague-Dawley rats; details: PO suspension 50 mg/kg, rat
Protocol: as §3
To evaluate pharmacokinetic properties of this TRPV3 inhibitor, rats were administered a single intravenous (IV) bolus dose of […] or an oral dose of a suspension of 50 mg/kg. For intraveneous administration, the TRPV3 inhibitor solution was formulated in PBS/NaOH, pH 10.5, at a target concentration of 0.25 mg/mL. This solution was administered as a rapid bolus (2-3 seconds) at a dose volume of 4 mL/kg via the tail vein of conscious rats or via a jugular vein catheter in anesthetized rats. For oral administration, the TRPV3 inhibitor was formulated as a uniform suspension in CMC (carboxymethylcellulose) at a target concentration of 5 mg/mL, and administered by oral gavage at a dose volume of 10 mL/kg to conscious rats.

[3] = Plasma, brain and CSF levels after IP or PO administration; assay type: in vivo; details: 0.5, 1, 4 hours post IP 200 or 50 mg/kg or PO 200 mg/kg, rats
Excerpt: For each time point evaluated, plasma levels are depicted by the left-most bar, brain levels are depicted by the center bar, and CSF levels are depicted by the right-most bar. […] For each time point evaluated, plasma levels are depicted by the left-most bar, brain levels are depicted by the center bar, and CSF levels are depicted by the right-most bar. […] For each time point evaluated, plasma levels are depicted by the left-most bar, brain levels are depicted by the center bar, and CSF levels are depicted by the right-most bar.

COc1cccc(/C=C/c2nc3ccccc3c(=O)n2-c2ccccc2)c1O [compound 82]
reduction of thermal hyperalgesia in carrageenan model ([1]; IP, 50 mg/kg): effective
reduction of thermal hyperalgesia in carrageenan model ([1]; IP, 200 mg/kg): effective
reduction of thermal hyperalgesia in carrageenan model ([1]; oral, 200 mg/kg): effective
reducing pain in the carrageenan model ([1]; rats, thermal hyperalgesia): efficacious in reducing pain
effective concentration corresponding to IC50 (rat TRPV3): ~0.105 µg/mL
effective concentration corresponding to IC50 (human TRPV3): approximately 94 ng/mL
estimated half-life (T1/2) [2]: one
detection in plasma, brain and CSF (central penetration) [3]: detected not only in plasma, but also in brain and CSF
